Columns and labels:
[1] = tested on: egg CAM (chorioallantoic membranes); assay: Egg CAM assay, angiogenesis induced by VEGF; format: in vivo; details: VEGF 10 ng/egg alone or with 1 μg sample; for Angiogenic activity(%): (standard deviation)
Protocol: Fertilized eggs (Pulmuwon, Korea) were incubated at 37° C. under a humidity of 90%. After three days of culturing, the eggs were deprived of about 2 ml of albumin. After four days, eggs were partially deprived of the sheath to make a window with a size of 2×2 cm.
After VEGF (10 ng/egg) was mixed with various amounts of peptides or other samples, 3 μl of each mixture was dropped onto ¼ fraction pieces of thermanox coverslips (Nunc) and dried. The pieces were placed on CAM of 9-day embryonic eggs.
Two days later, the samples were independently observed under anatomical microscopes by two different persons to determine whether new blood vessels are induced by the dropped samples or not. In this regard, the experiment was repeated at least three times using 10 or more eggs per sample and the results are given in Table 5, below.

HUVEC = assay: Toxicity of peptides to HUVEC in the absence of VEGF (thymidine incorporation); format: cell-based, human; details: 100 μM peptide
Protocol: (§1) In a gelatin-coated 48-well plate (Nunc) HUVEC were cultured at a density of 10^4 cells/well at 37° C. for one day, followed by washing the cells three times with serum-free medium 199. After being added with culture media containing VEGF (10 ng/ml, R&D systems) and various concentrations of the screened peptides, the cells were cultured at 37° C. After 24 hours of culturing, the cells were added with [methyl-^3H] thymidine (0.5 μCi/well) and cultured for an additional one day. Before quantification of the radioactivity used for the DNA synthesis with the aid of a liquid scintillation counter, the cells were washed with PBS containing 0.1% albumin, treated with 0.4 N NaOH at room temperature for 20 min for cell lysis, and neutralized with 2 N HCl. In order to determine the toxicity of the peptides, HUVEC were examined as in above using excess peptide (100 μM) in the absence of VEGF.
With reference to FIG. 10b, the radioactivity of the thymidine inserted into the genome of HUVEC is measured in the absence of no peptides and in the presence of 100 μM of each of the three peptides.

[2] = tested on: HM7 (human colon carcinoma cell line); assay: Growth of HM7 cancer cells in vitro (tetrazolium dye); format: cell-based; details: 5×10^3 cells/well
Description: In order to conduct an experiment concerning the metastasis of cancer cells to the liver, cancerous cells were transplanted into the spleen. In this regard, after being anesthetized with diethyl ether, 4-week-old male mice (athymic nude mice, BALB/c/nu/nu, Charles River, Japan) underwent flank incision. […] Four weeks after the injection, the liver was excised from each mouse and measured for weight and the size and number of metastatic nodules formed. Each test group was composed of 6-7 mice. In a student's t-test, a p value less than 0.05 was regarded as being statistically significant. In the test using tetrazolium dye (cell titer 96 Non-radioactive Proliferation Assay Kit, Promega), each peptide was evaluated to have no influence on the growth of the cancer cells (5×10^3 cells/well), so that the possibility that the toxicity of the peptide themselves might inhibit the growth and metastasis of cancer cells could be excluded.

VEGF = biological target: T1, VEGF (Homo sapiens, UniProt P15692); assay: Inhibition of 125I-labeled VEGF binding to its receptors on HUVEC; details: for IC50: HUVEC, peptides at 1, 4, 10 and 20 μM/sequence (FIG. 5)
T1 sequence (P15692 27-191 isoform P15692-4): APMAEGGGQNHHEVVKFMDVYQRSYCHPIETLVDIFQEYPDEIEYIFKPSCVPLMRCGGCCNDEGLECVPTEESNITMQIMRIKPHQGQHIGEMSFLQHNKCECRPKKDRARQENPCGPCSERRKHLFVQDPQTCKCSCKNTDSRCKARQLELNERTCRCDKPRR
Protocol: Then, the cells were transferred to a medium (Medium 199/25 mM HEPES, pH 7.4/0.1% bovine serum albumin) containing 0.2 ng of ^125I-labeled VEGF and various concentrations of peptides or combinatorial peptide libraries and reacted at 4° C. for 3 hours. The cells were washed twice with the same medium and once with PBS containing 0.1% albumin to remove the labeled VEGF which still remained uncombined. Thereafter, to quantify the labeled VEGF which bound to receptors present on the surface of the vascular endothelial cells, the cells were treated with 0.5 ml of a lysis solution (20 mM Tris-HCl, pH 7.4/1% TritonX-100) for 20 min, followed by measuring the resulting lysate for radioactivity with the aid of a γ-counter.
The sequence of each peptide was indirectly decided through the analysis of amino acid compositions and its concentration was determined, after which 12 peptides were assayed for antagonism toward VEGF binding at various concentrations (1, 4, 10, and 20 μM/sequence).

[3] = Acute toxicity test on rat upon non-oral administration; format: in vivo; details: 1 mg/kg, intramuscular injection; for LD50: rat, in vivo, im, SD rats, read-out: lethal dose (LD50)
Protocol: Using specific pathogen-free (SPF) SD rats which were six weeks old, the peptides of Sequences 1, 2, and 3 were tested for acute toxicity. Suspensions of the peptides in 1 ml of PBS were administered at a dose of 1 mg/kg to the rats, which were grouped in twos, by intramuscular injection. […] An autopsy was made of the rats with the naked eye to observe whether their abdominal and thoracic organs were damaged. Neither sudden death nor noticeable clinical symptoms were detected in any of the animals administered with the peptides of interest.

[4] = tested on: human fibro-sarcoma cells; assay: Viability of human fibro-sarcoma cells (tetrazolium dye); format: cell-based; details: 3 days incubation, various concentrations
Protocol: The following experiment was carried out to determine whether peptides antagonistic to VEGF have direct influence on the growth of human fibro-sarcoma cells. After being cultured for one day in a 96-well plate (Nunc), the cancer cells were added with DMEM containing various concentrations of the screened peptides and incubated. To the cells remaining alive after 3 days of incubation, 20 μl of tetrazolium dye (Cell Titer 96 Non-Radioactive Proliferation assay kit, Promega) was added, followed by incubation at 37° C. for 4 hours. The formazan produced by the viable cells was dissolved in 0.2 ml of dimethyl sulfoxide (DMSO) quantified by the absorbance at 570 nm. The absorbance attributed to formazan is proportional to living cells.

[5] = tested on: VEGF-induced DNA synthesis of HUVEC; assay: VEGF-induced DNA synthesis of HUVEC ([methyl-3H] thymidine); format: cell-based, human; details: FIG. 10a
Protocol: as §1

Row | Compound | Angiogenic activity eggs/total eggs [1] | Angiogenic activity(%) [1] | direct influence on growth of HUVEC / cytotoxicity to endothelial cells (HUVEC) | influence on growth of the cancer cells / cytotoxicity to human colon carcinoma cells [2] | IC50 (VEGF) [µM] | inhibition of binding of labeled VEGF165 to its receptors (VEGF; recombinant labeled VEGF165, FIG. 9) | toxic changes to the rats [3] | LD50 [3] [mg/kg] | direct influence on growth / viability of human fibro-sarcoma cells ([4]; listed as SEQ ID NO: 1) | direct influence on growth / viability of human fibro-sarcoma cells ([4]; listed as Sequence 1) | inhibition of VEGF-induced growth of vascular endothelial cells [5] | direct influence on growth / viability of human fibro-sarcoma cells ([4]; listed as SEQ ID NO: 2) | direct influence on growth / viability of human fibro-sarcoma cells ([4]; listed as Sequence 2) | direct influence on growth / viability of human fibro-sarcoma cells ([4]; listed as SEQ ID NO: 3) | direct influence on growth / viability of human fibro-sarcoma cells ([4]; listed as Sequence 3)
1 | H-RRKRRR-NH2 [compound 8, NH2-Arg-Arg-Lys-Arg-Arg-Arg-CONH2] | 4/26 | 15.6(5.1) % | damage neither | damage neither | 2 | inhibited | no toxic changes | ≥ 1 | no direct influence on human fibro sarcoma cells | damage neither | inhibit the VEGF-induced growth of vascular endothelial cells in a dose-dependent pattern |  |  |  | 
2 | H-RKKRKR-NH2 [compound 1, NH2-Arg-Lys-Lys-Arg-Lys-Arg-CONH2] | 4/26 | 15.6(4.5) % | damage neither | damage neither | 3.4 |  | no toxic changes | ≥ 1 |  |  | inhibit the VEGF-induced growth of vascular endothelial cells in a dose-dependent pattern | no direct influence on human fibro sarcoma cells | damage neither |  | 
3 | N=C(N)NCCC[C@H](NC(=O)[C@H](CCCNC(=N)N)NC(=O)[C@H](CCCNC(=N)N)NC(=O)[C@H](CCCNC(=N)N)NC(=O)[C@H](CCCNC(=N)N)NC(=O)[C@@H](N)CCCNC(=N)N)C(N)=O [compound 11, NH2-Arg-Arg-Arg-Arg-Arg-Arg-CONH2] | 4/26 | 15.6(5.1) % | damage neither | damage neither | 3.8 |  | no toxic changes | ≥ 1 |  |  | inhibit the VEGF-induced growth of vascular endothelial cells in a dose-dependent pattern |  |  | no direct influence on human fibro sarcoma cells | damage neither
